Tested on: yeast cells expressing low levels of huntingtin
Test: Huntingtin toxicity in yeast grown in the presence of an ER stress inducer (FIG. 6B)
Assay type: cell-based
Conditions: yeast cells grown in the presence of tunicamycin, low levels of huntingtin expressed
Description: The unfolded protein response in yeast is depicted in FIG. 6A. […] Conversely, expression of constitutively active IRE1 or HAC (proteins that induce the UPR) ameliorated the toxic effects of high level expression of 103 Q huntingtin in yeast (FIGS. 6D and 6E).

In the case of tunicamycin, the “huntingtin toxicity in yeast cells” value is reported as “enhanced toxicity”.
